Measurements as given in EP0773287A1, “Immortalised embryonic hyppocampal cells and their use” (BAYER AG, priority 1995, dated 1997).
Like-named read-outs stand apart in the source and are kept apart here.

Experiments:
Assay type in all cases: cell-based, murine
HC e/n XV.B cells = test: Ca2+-imaging (Fura-2) of intracellular calcium after application of agonists
Experimental: (§1) Fluorescent Probe: Dynamic changes of intracellular calcium concentration were measured using the Fura-2 fluorescent probe (Roe et al. 1990, Cell Calcium 11:63-73). This fluorescent dye was chosen because of its selectivity, high quantum yield and extinction co-efficient. Fura-2 permeates the living cell as a acetoxymethylester and becomes trapped within the cell after hydrolysis by intracellular esterases. The calcium-sensitive free acid of Fura-2 is able to bind to calcium ions inside the cell. Fura-2 has an excitation maximum at 380 nm and the Fura2/calcium complex peaks at 340 nm. A change in intracellular calcium concentration was calculated by recording fluorescent video images at wavelengths of 340nm and 380nm excitation and 510nm emission and by dividing the grey values of the digitized video images of 380nm from 340nm.
(§2) Loading cells with Fura-2: A stock solution with 2mM Fura-2-acetoxymethylester in dimethylsulfoxide (DMSO) was diluted to 5-10 µM with serum free Minimal Essential Medium (MEM, Gibco) containing 1.5% bovine serum albumin and 5 mM calcium chloride. The cells were incubated in a Falcon 96 well plate for 45-60 minutes at 37°C. Subsequently the cells were washed twice in N-(2-Hydroxyethyl)piperazine-N'-(2-ethanesulfonic acid) (HEPES, 5mM) buffered Tyrode solution (HEPES buffered salt solution containing 130 mM NaCl, 5 mM KCl, 2 mM CaCl2, 1 mM MgCl2, 5mM NaHCO3, 11 mM Glucose).
(§3) Imaging procedure: 100 µl of Tyrode buffer was added to the plate wells and the cells were sequencially exposed to light at 340 nm and 380 nm under a fluorescent microscope (Nikon Diaphot). The exposition time was 100 ms. A series of video images at 3 second intervals was acquired and stored as digitised pictures in the image boards of an image analysis computer (Leica, Quantimet 570). After the acquisition of 8 images the test substances were applied. The grey levels of the cells, which correspond to the fluorescence intensity, were measured in the recorded video images. The ratio was determined by dividing the measured grey levels of the "380 nm images" by the grey levels of the "340 nm images" either from averaged images or from individual cells. For averaged results, the grey levels were measured over the whole images.
(§4) The cells were loaded with Fura 2/AM between day 3 and 7 in culture. A number of agonists were tested for their ability to activate specific receptors on the cell surface which lead to a rise in intracellular calcium. The rise in calcium concentration in the cytoplasm can occur after activation of specific calcium channels in the cell membrane, after activation of neurotransmitter receptors directly coupled to ion channels that are permeable to calcium ions (i.e. NMDA or AMPA type glutamate receptors), or by activation of receptors, which propagate the signal through the activation of specific G-proteins, which regulate the activity of different enzymes in the interior of the cell (Connor, Cell Calcium 14 (1993), 185-200; Crouch and Hendry, Medical Res. Rev. 13 (1993), 105-123). The activation of phospholipase C generates the second messengers diacylglycerol and inositoltriphosphate from phospholipids in the cell membrane. The binding of inositoltriphosphate to receptors localised on internal vesicles which store calcium ions leads to a transient rise in the concentration of calcium ions in the cytoplasm (Berridge, M.J. 1993, Nature 361: 315-325).

HNMMCV11.2.0 = test: as above
Experimental: as §1, §2, §3, §4

HNMMCV13.1.E = test: as above
Experimental: as §1, §2, §3, §4

HNMMCV13.1.F = test: as above
Experimental: as §1, §2, §3, §4

HNMMCV14.1.A [1] = test: as above
Experimental: as §1, §2, §3, §4

HC e/n XVB cells = test: Whole-cell patch-clamp recording of ligand-activated currents; settings: for ligand-activated currents (electrophysiological recordings): membrane potential clamped to -70mV
Experimental: (§5) Electrophysiological setup: Membrane currents were measured with the patchclamp technique in the whole-cell recording configuration (Hamill et al. 1981, Pfluegers Arch. 391:85-100). Current signals were amplified with conventional electronics (EPC-9 amplifier, HEKA Elektronik GmbH, Lambrecht, Germany), filtered at 10kHz, and sampled at 5 kHz by an interface connected to an IBM AT-compatible computer system, which also served as a stimulus generator.
(§6) Solutions and electrodes: The standard bathing solution contained (in mM): Nacl 150, KCL 5, MgCl2 1.8, HEPES 5, and glucose 10. In some experiments an equimolar amount of NaCl was replaced by 5mM BaCl2. Recording pipettes had resistances about 5MΩ (Hilgenberg, Malsfeld, Germany). The pipettes contained (in mM): KCL 140, CaCl2 0.5, EGTA 5, MgCl2 2, and HEPES 10. The pH was adjusted to 7.4. In some experiments the pipette solution was designed to minimize the contribution of voltage-activated currents. In this case, investigating the ligand-activated currents, the pipette solution contained (in mM): CsCl 140, EGTA 10, and HEPES 10.
(§7) Ligands were dissolved in the extracellular saline solution and applied via an U-tube application system. To record ligand-induced currents, the membrane potential was clamped to -70mV. For measurements of voltage-activated currents, cells were held at -70mV and every second the membrane was stepped through a 50 msec. de- or hyperpolarising test pulse to a potential between -170 and +20 mV.

[2] = system: metabotropic glutamate receptor(s) (mGluR) expressed by HNMMCV14.1A cells; test: Phosphoinositide hydrolysis: accumulation of 3H-inositol phosphates; settings: for EC50: read-out: EC50 inositolphosphate accumulation
Experimental: Phosphoinositide hydrolysis was determined by measuring the accumulation of ^3H-inositol phosphates. The cells were plated in 48-well plates (Costar) at a density of 10000 cells per well and incubated for 4-5 days at 37°C, 7% CO2. Then the cells were labeled by incubation with 4 µCi of myo-2-^3H-inositol per ml medium (specific activity: […]: Amersham). After 24 h LiCl (10 mM final concentration) was added to the cells for 1 h. Agonists were then added at the concentrations indicated. The incubation was stopped after 1 h by replacing the medium with 200 µl ice-cold methanol. 400 µl of destilled water was added and the sample was directly applied to AG-1X8 ion exchange columns (AG-1X8 resin: BioRad). Free inositol and glycerophosphoryl-inositol were washed away with 16 ml destilled water followed by 10 ml 5 mM disodium-tetraborate, 60 mM sodium formate. Total ^3H-inositol phosphates (IP1, IP2, IP3) were eluted with 7 ml of 100 mM formic acid, 1 M ammonium formate. Radioactivity of the eluted ^3H-inositol phosphates was determined by liquid scintillation counting after addition of 13 ml liquid scintillation cocktail (Ultima Gold: Canberra Packard). Measurements were performed in triplicates for each experimental point. Untreated controls were set as 100% and the other values calculated in relation to this.
The columns were prepared as follows: 1 ml pipet tips were filled with one glass bead (Roth) per tip before adding 500 µl AG-1X8 resin. The resin was compressed with air and 270 µl seasand was applied. Until use they were stored at 4°C.

HNMMCV14.1.A [3] = test: Whole-cell patch-clamp recording of ligand-activated currents
Experimental: as §5, §6, §7

[4] = HC e/n XV.B cells, state of differentiation not stated, up to 1mM
[5] = HNMMCV13.1.F, concentrations (glutamate 10µM to 10 mM; AMPA, kainic acid, serotonine, dopamine, carbachol up to 1mM; NMDA up to 500µM)
[6] = HNMMCV14.1A cells, agonist 1 h, LiCl 10 mM
[7] = 14.1.A, membrane potential clamped to -70mV
[8] = differentiated HC e/n XVB cells, AMPA 100µM, NMDA 1mM, kainate 1mM, glutamate 1mM
[9] = differentiated HC e/n XV.B cells

NCCc1ccc(O)c(O)c1 [Dopamine, dopamine]
rise in intracellular calcium concentration (result in words) (HC e/n XV.B cells; [4]): did not lead to a specific signal | rise in intracellular calcium concentration (result in words) (HNMMCV11.2.0; HNMMCV11.2.0): did not lead to a specific signal | rise in intracellular calcium concentration (result in words) (HNMMCV13.1.E; HNMMCV13.1.E): did not lead to a specific signal | rise in intracellular calcium concentration (result in words) (HNMMCV13.1.F; [5]): did not lead to a specific signal | rise in intracellular calcium concentration (result in words) (HNMMCV14.1.A [1]; HNMMCV14.1.A): did not lead to a specific signal

N#Cc1cc2[nH]c(=O)c(=O)[nH]c2cc1[N+](=O)[O-] [CNQX, 6-nitro-7-cyanochinoxalin-2,3-dione]
antagonism of the calcium signals recorded after application of glutamate (HNMMCV13.1.F; glutamate 100µM, CNQX 100µM, cells not given, Table 5 gives 13.1.F): not antagonised

NCc1cc(=O)[nH]o1 [muscimol]
effect on the GABA-response (HC e/n XVB cells; HC e/n XVB cells): mimicked

CN[C@H](CC(=O)O)C(=O)O [NMDA, N-methyl-D-aspartate]
ligand-activated currents (electrophysiological recordings) (HC e/n XVB cells; XV. B/ - EGF): ++ (++: 30-70% positive cells)

N[C@@H](Cn1oc(=O)[nH]c1=O)C(=O)O [Quisqualate, quisqualate]
effect on inositolphosphate accumulation (result in words) ([2]; HNMMCV14.1A cells): concentration dependent increase | maximum response of inositolphosphate accumulation compared with glutamate ([2]; HNMMCV14.1A cells): slightly weaker | EC50 [2, 6]: 0.02 µM

CC(=O)OCC[N+](C)(C)C [Acetylcholine, acetylcholine]
ligand-activated currents (electrophysiological recordings) (HC e/n XVB cells; XV. B/ - EGF): - | ligand-activated currents (electrophysiological recordings) (HNMMCV14.1.A [3]; [7]): + (+: 10-30% positive cells)

NCCc1c[nH]c2ccc(O)cc12 [Serotonine]
rise in intracellular calcium concentration (result in words) (HC e/n XV.B cells; [4]): did not lead to a specific signal | rise in intracellular calcium concentration (result in words) (HNMMCV11.2.0; HNMMCV11.2.0): did not lead to a specific signal | rise in intracellular calcium concentration (result in words) (HNMMCV13.1.E; HNMMCV13.1.E): did not lead to a specific signal | rise in intracellular calcium concentration (result in words) (HNMMCV13.1.F; [5]): did not lead to a specific signal | rise in intracellular calcium concentration (result in words) (HNMMCV14.1.A [1]; HNMMCV14.1.A): did not lead to a specific signal

NCCCC(=O)O [GABA]
ligand-activated currents (electrophysiological recordings) (HC e/n XVB cells; XV. B/ - EGF): +++ (+++: 70-100% positive cells) | ligand-activated currents (electrophysiological recordings) (HC e/n XVB cells; XV. B): + (+: 10-30% positive cells) | ligand-induced inward currents (result in words) (HC e/n XVB cells; [8]): prominent resonses | ligand-activated currents (electrophysiological recordings) (HNMMCV14.1.A [3]; [7]): ++ (++: 30-70% positive cells)

N[C@@]1(C(=O)O)CC[C@@H](C(=O)O)C1 [t-ACPD, 1S3R-aminocyclopentane-1,3-dicarboxylate]
rise in intracellular calcium concentration (result in words) (HC e/n XV.B cells; [9]): weak signals | rise in intracellular calcium concentration (result in words) (HNMMCV11.2.0; HNMMCV11.2.0): strong | rise in intracellular calcium concentration (result in words) (HNMMCV13.1.E; HNMMCV13.1.E): strong | rise in intracellular calcium concentration (result in words) (HNMMCV13.1.F; [5]): strong | rise in intracellular calcium concentration (result in words) (HNMMCV14.1.A [1]; HNMMCV14.1.A): strong | effect on inositolphosphate accumulation (result in words) ([2]; HNMMCV14.1A cells): concentration dependent increase | maximum response of inositolphosphate accumulation compared with glutamate ([2]; HNMMCV14.1A cells): slightly weaker | EC50 [2, 6]: 20 µM

L-carboxycyclopropylglycin [L-CCG 1]
rise in intracellular calcium concentration (result in words) (HC e/n XV.B cells; [9]): weak signals | rise in intracellular calcium concentration (result in words) (HNMMCV11.2.0; HNMMCV11.2.0): strong | rise in intracellular calcium concentration (result in words) (HNMMCV13.1.E; HNMMCV13.1.E): strong | rise in intracellular calcium concentration (result in words) (HNMMCV13.1.F; [5]): strong | rise in intracellular calcium concentration (result in words) (HNMMCV14.1.A [1]; HNMMCV14.1.A): strong

NC(C(=O)O)c1cc(O)no1 (stereo not shown) [ibotenate]
effect on inositolphosphate accumulation (result in words) [2]: concentration dependent increase | maximum response of inositolphosphate accumulation compared with glutamate [2]: slightly weaker | EC50 [2]: 5 µM

Cc1onc(O)c1CC(N)C(=O)O (stereo not shown) [AMPA, ∝-amino-3-hydroxy-5-methyl-4-isoxazol-propionic acid]
rise in intracellular calcium concentration (result in words) (HC e/n XV.B cells; undifferentiated HC e/n XV.B cells): did not result in a transient rise | rise in intracellular calcium concentration (result in words) (HNMMCV11.2.0; HNMMCV11.2.0): did not result in a transient rise | rise in intracellular calcium concentration (result in words) (HNMMCV13.1.E; HNMMCV13.1.E): did not result in a transient rise | rise in intracellular calcium concentration (result in words) (HNMMCV13.1.F; [5]): did not result in a transient rise | rise in intracellular calcium concentration (result in words) (HNMMCV14.1.A [1]; HNMMCV14.1.A): did not result in a transient rise | ligand-activated currents (electrophysiological recordings) (HC e/n XVB cells; XV. B/ - EGF): + (+: 10-30% positive cells) | ligand-induced inward currents (result in words) (HC e/n XVB cells; [8]): evoked responses

C[N+](C)(C)CCOC(N)=O [Carbachol]
rise in intracellular calcium concentration (result in words) (HC e/n XV.B cells; [4]): reproducible signal

CN1CCc2cc3c(cc2[C@H]1[C@@H]1OC(=O)c2c1ccc1c2OCO1)OCO3 [bicuculline]
effect on the GABA-response (HC e/n XVB cells): blocked

C=C(C)[C@H]1CN[C@H](C(=O)O)[C@H]1CC(=O)O [Kainate, kainic acid]
rise in intracellular calcium concentration (result in words) (HC e/n XV.B cells): reproducible calcium signal | rise in intracellular calcium concentration (result in words) (HNMMCV11.2.0): did not result in a transient rise | transient calcium currents after the application of agonists and antagonists (Calcium - Imaging) (HNMMCV11.2.0): - | rise in intracellular calcium concentration (result in words) (HNMMCV13.1.E): did not result in a transient rise | transient calcium currents after the application of agonists and antagonists (Calcium - Imaging) (HNMMCV13.1.E): - | rise in intracellular calcium concentration (result in words) (HNMMCV13.1.F): did not result in a transient rise | transient calcium currents after the application of agonists and antagonists (Calcium - Imaging) (HNMMCV13.1.F): - | rise in intracellular calcium concentration (result in words) (HNMMCV14.1.A [1]): did not result in a transient rise | transient calcium currents after the application of agonists and antagonists (Calcium - Imaging) (HNMMCV14.1.A [1]): - | ligand-induced inward currents (result in words) (HC e/n XVB cells): evoked responses | ligand-activated currents (electrophysiological recordings) (HNMMCV14.1.A [3]): + / -
